Assay results from ChEMBL document CHEMBL1177767, “The discovery and initial optimisation of pyrrole-2-carboxamides as inhibitors of p38alpha MAP kinase” (Bioorg Med Chem Lett, 2010).

Legend:
Format in all cases: ADME, organism-based
[1] = Oral bioavailability in CD rat at 1 mg/kg after 7 hrs by LC-MS/MS analysis; conditions: in vivo
[2] = Half life in CD rat at 1 mg/kg, iv and 1 mg/kg, po after 7 hrs by LC-MS/MS analysis; conditions: in vivo
[3] = Clearance in CD rat at 1 mg/kg, iv and 1 mg/kg, po after 7 hrs by LC-MS/MS analysis; conditions: in vivo
[4] = Apparent volume of distribution at steady state in CD rat at 1 mg/kg, iv and 1 mg/kg, po after 7 hrs by LC-MS/MS analysis; conditions: in vivo, read-out: Vdss

Compound: Cc1ccccc1C(=O)c1c[nH]c(C(=O)NCc2ccco2)c1
- bioavailability [1]: 18%
- half-life [2]: 9.6 min
- clearance [3]: 56 mL/min/kg
- Vd [4]: 0.931 L/kg
